The values that follow come from ChEMBL document CHEMBL1201862, “PubChem BioAssay data set” (2004).

Broadly, the GI50 is the concentration at which growth is held to half of that of the control.

Molecules are shown by their SMILES.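 A five-concentration, 48-hour dose response in 96-well plates underlies each endpoint, interpolated linearly between surrounding concentrations. GI50 is the concentration that inhibits growth by half.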 Calls of active or inactive are those of the source. Cut-off read from the data, not from the text of the source: active = GI50 up to about 1.1 µM and inactive = higher.

Test systems include UACC-62; OVCAR-8; SN12C; M14; K562; Hs-578T; KM12; IGROV-1; HOP-92; SF-295; OVCAR-5; 786-0; CCRF-CEM; UACC-257; COLO 205; NCI-H23; MDA-MB-435; SF-268; HCT-15; MDA-MB-231.
Experiment in all cases: DTP human tumour cell line panel, 48 h

Regarding `O=C1NN(c2ccccc2)C(=O)C2C3c4ccccc4C(c4ccccc43)C12` (stereo not given), the GI50 with UACC-62 was > 100 µM (inactive); in the assay with OVCAR-8, > 100 µM (inactive); in the assay with SN12C it was 77.1 µM (inactive); in the assay with M14 it was > 100 µM (inactive); in the assay with K562 it was 43.2 µM (inactive); in the assay on Hs-578T, 83.2 µM (inactive). The GI50 is > 100 µM (inactive) in the assay on KM12; > 100 µM (inactive) in the assay with IGROV-1; > 100 µM (inactive) in the assay on HOP-92; 80 µM (inactive) with SF-295; > 10 µM (inactive) in the assay with OVCAR-5; > 100 µM (inactive) in the assay on 786-0. For the same compound, the GI50 in the assay with CCRF-CEM is 22.5 µM (inactive); in the assay with UACC-257, 27.6 µM (inactive); in the assay with COLO 205, 78.2 µM (inactive); with NCI-H23, > 100 µM (inactive); in the assay on MDA-MB-435, > 100 µM (inactive); in the assay on SF-268, > 100 µM (inactive). Moreover, the GI50 was 89.1 µM in the assay with HCT-15 and 41 µM (inactive) in the assay with MDA-MB-231.
`CCOC(=O)CSc1nc(-c2ccc(Cl)cc2)c(C#N)c(=O)[nH]1`: the GI50 in the assay on UACC-62 was 92 µM (inactive); in the assay on OVCAR-8, > 100 µM (inactive); in the assay on SN12C, > 100 µM (inactive); in the assay on M14, > 100 µM (inactive); in the assay with K562, 36 µM (inactive); with Hs-578T it was > 100 µM (inactive). For the same compound, the GI50 in the assay on KM12 is > 100 µM (inactive); with IGROV-1, > 100 µM (inactive); with HOP-92 it was 42.3 µM (inactive); in the assay on SF-295, > 100 µM (inactive); in the assay on OVCAR-5, > 100 µM (inactive); in the assay with 786-0, > 100 µM (inactive). In addition, the GI50 in the assay with CCRF-CEM is 41.1 µM (inactive); with UACC-257 it was > 100 µM (inactive); in the assay on COLO 205 it was > 100 µM (inactive); in the assay on NCI-H23, > 100 µM (inactive); in the assay with MDA-MB-435 it was > 100 µM (inactive); in the assay with SF-268, > 100 µM (inactive). Besides, the 50% growth inhibitory concentration (GI50) was above 100 µM with HCT-15 and 50.6 µM (inactive) in the assay on MDA-MB-231.
As for `Br/C(=N\N=c1/nn[nH][nH]1)c1ccncc1`, the GI50 in the assay on UACC-62, with OVCAR-8, in the assay on SN12C, in the assay with M14, in the assay on K562 and in the assay on Hs-578T was > 100 µM (inactive) in each case. Besides, the GI50 in the assay with KM12, with IGROV-1, in the assay with HOP-92, with SF-295, in the assay on OVCAR-5 and in the assay with 786-0 was > 100 µM (inactive) throughout. The GI50 with CCRF-CEM, in the assay with UACC-257, in the assay on COLO 205, in the assay on NCI-H23, with MDA-MB-435 and in the assay with SF-268 was > 100 µM (inactive) each time. The GI50 was above 100 µM in the assay with HCT-15 and > 100 µM (inactive) with MDA-MB-231.
Take `O=C1C(=O)N(c2cccc(C(F)(F)F)c2)C(=O)C(=O)C1c1nc2ccccc2s1`: the GI50 was > 100 µM (inactive) with UACC-62; 20.2 µM (inactive) in the assay on OVCAR-8; > 93.3 µM (inactive) with SN12C; 98.2 µM (inactive) with M14; 51.2 µM (inactive) in the assay with K562; > 100 µM (inactive) with Hs-578T. For the same compound, the GI50 with KM12 was > 64 µM (inactive); in the assay on IGROV-1 it was > 81.7 µM (inactive); in the assay with HOP-92, > 100 µM (inactive); in the assay with SF-295 it was 65.3 µM (inactive); in the assay with OVCAR-5 it was > 100 µM (inactive); with 786-0, 72.3 µM (inactive). For the same compound, the GI50 in the assay on CCRF-CEM was 24.5 µM (inactive); in the assay with UACC-257 it was > 92 µM (inactive); with COLO 205, > 100 µM (inactive); with NCI-H23, > 59.7 µM (inactive); with MDA-MB-435, > 100 µM (inactive); in the assay on SF-268, 98.2 µM (inactive). Also, the concentration for 50% growth inhibition (GI50) in the assay with HCT-15 was 39.6 µM; with MDA-MB-231 it was 73.6 µM (inactive).
